In US20030232986A1, “Inhibitors of caspases” (Vertex Pharmaceuticals Incorporated, priority 1998, published 2003):
Like-named read-outs stand apart in the source and are kept apart here. Where a SMILES comes first, the peptide text is derived from it. [ ]: non-standard residue; d: D form. The star is where a group is joined. 4Abz = Nc1ccc(C(=O)O)cc1; Bz = O=C(c1ccccc1)*

Columns and labels:
[1] = test system: Human whole blood, IL-1β production; assay: Whole blood assay for IL-1β production; format: cell-based; settings: LPS-stimulated whole blood, IL-1β by ELISA
Description: The whole blood assay is a simple method for measuring the production of IL-1β (or other cytokines) and the activity of potential inhibitors. The complexity of this assay system, with its full complement of lymphoid and inflammatory cell types, spectrum of plasma proteins and red blood cells is an ideal in vitro representation of human in vivo physiologic conditions.
Set incubator or water bath at 30° C. Aliquot 0.25 ml of blood into 1.5 ml eppendorf tubes. Note: be sure to invert the whole blood sample tubes after every two aliquots. Differences in replicates may result if the cells sediment and are not uniformly suspended. Use of a positive displacement pipette will also minimize differences between replicate aliquots.
Prepare drug dilutions in sterile pyrogen-free saline by serial dilution. A dilution series which brackets the apparent Ki for a test compound determined in an ICE inhibition assay is generally used for the primary compound screen. For extremely hydrophobic compounds, prepare compound dilutions in fresh plasma obtained from the same blood donor or in PBS-containing 5% DMSO to enhance solubility.
Add 25 μl test compound dilution or vehicle control and gently mix the sample. Then add 5.0 μl LPS solution (250 ng/ml stocked prepared fresh: 5.0 ng/ml final concentration LPS), and mix again. Incubate the tubes at […] in a water bath for 16-18 hr with occasional mixing. Alternatively, the tubes can be placed in a rotator set at 4 rpm for the same incubation period. This assay should be set up in duplicate or triplicate with the following controls: negative control—no LPS; positive control—no test inhibitor; vehicle control—the highest concentration of DMSO or compound solvent used in the experiment. Additional saline is added to all control tubes to normalize volumes for both control and experimental whole blood test samples.
After the incubation period, whole blood samples are centrifuged for 10 minutes at ^˜2000 rpm in the microfuge, plasma is transferred to a fresh microfuge tube and centrifuged at 1000×g to pellet residual platelets if necessary. Plasma samples may be stored frozen at −70° C. prior to assay for cytokine levels by ELISA.
R & D Systems (614 McKinley Place N.E. Minneapolis, Minn. 55413) Quantikine kits may be used for measurement of IL-1β and TNF-α. The assays are performed according to the manufacture's directions. IL-1β levels of ^˜1-5 ng/ml in positive controls among a range of individuals may be observed. A 1:200 dilution of plasma for all samples is usually sufficient for experiments for ELISA results to fall on the linear range of the ELISA standard curves. It may be necessary to optimize standard dilutions if you observe differences in the whole blood assay. Nerad, J. L. et al., J. Leukocyte Biol., 52, pp. 687-692 (1992).

[2] = biological target: T1, Caspase-1 (Homo sapiens, UniProt P29466); assay: Caspase-1 enzyme inhibition (Ki); format: biochemical
T1 sequence (P29466 120-297 limits assumed): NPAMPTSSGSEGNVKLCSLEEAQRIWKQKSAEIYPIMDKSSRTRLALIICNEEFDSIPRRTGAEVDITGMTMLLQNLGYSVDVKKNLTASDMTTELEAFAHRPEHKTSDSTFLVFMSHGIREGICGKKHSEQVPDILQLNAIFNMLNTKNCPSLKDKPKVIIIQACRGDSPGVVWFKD
T1 sequence (P29466 317-404 limits assumed): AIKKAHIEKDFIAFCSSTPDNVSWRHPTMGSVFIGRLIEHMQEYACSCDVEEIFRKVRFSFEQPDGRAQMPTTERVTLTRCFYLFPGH
How it was run: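 Ki obtained by fitting rate versus inhibitor concentration to the Morrison tight-binding equation for competitive inhibitors, with pNA release read at 405 nm at 37 °C. Substrate Suc-YVAD-pNA (80 μM final) added after 15 min enzyme–inhibitor preincubation in Tris pH 7.5 buffer with DTT and CHAPS.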

[3] = test system: Human Peripheral Blood Mononuclear Cells (PBMC), mature IL-1β; assay: PBMC cell assay: IL-1β assay with human peripheral blood mononuclear cells; format: cell-based; settings: LPS-stimulated human PBMC, mature IL-1β in supernatant by ELISA
Excerpt: IL-1β Assay with a Mixed Population of Human Peripheral Blood Mononuclear Cells (PBMC) or Enriched Adherent Mononuclear Cells
Processing of pre-IL-1β by ICE can be measured in cell culture using a variety of cell sources. Human PBMC obtained from healthy donors provides a mixed population of lymphocyte subtypes and mononuclear cells that produce a spectrum of interleukins and cytokines in response to many classes of physiological stimulators. Adherent mononuclear cells from PBMC provides an enriched source of normal monocytes for selective studies of cytokine production by activated cells.
An initial dilution series of test compound in DMSO or ethanol is prepared, with a subsequent dilution into RPMI-10% FBS media (containing 2 mM L-glutamine, 10 mM HEPES, 50 U and 50 ug/ml pen/strep) respectively to yield drugs at 4× the final test concentration containing 0.4% DMSO or 0.4% ethanol. The final concentration of DMSO is 0.1% for all drug dilutions. A concentration titration which brackets the apparent Ki for a test compound determined in an ICE inhibition assay is generally used for the primary compound screen.
Generally 5-6 compound dilutions are tested and the cellular component of the assay is performed in duplicate, with duplicate ELISA determinations on each cell culture supernatant.
Buffy coat cells isolated from one pint human blood (yielding 40-45 ml final volume plasma plus cells) are diluted with media to 80 ml and LeukoPREP separation tubes (Becton Dickinson) are each overlaid with 10 ml of cell suspension. After 15 min centrifugation at 1500-1800×g, the plasma/media layer is aspirated and then the mononuclear cell layer is collected with a Pasteur pipette and transferred to a 15 ml conical centrifuge tube (Corning). Media is added to bring the volume to 15 ml, gently mix the cells by inversion and centrifuge at 300×g for 15 min. The PBMC pellet is resuspended in a small volume of media, the cells are counted and adjusted to 6×10^6 cells/ml.
For the cellular assay, 1.0 ml of the cell suspension is added to each well of a 24-well flat bottom tissue culture plate (Corning), 0.5 ml test compound dilution and 0.5 ml LPS solution (Sigma #L-3012; 20 ng/ml solution prepared in complete RPMI media; final LPS concentration 5 ng/ml). The 0.5 ml additions of test compound and LPS are usually sufficient to mix the contents of the wells. Three control mixtures are run per experiment, with either LPS alone, solvent vehicle control, and/or additional media to adjust the final culture volume to 2.0 ml. The cell cultures are incubated for 16-18 hr at 37° C. in the presence of 5% CO2.
At the end of the incubation period, cells are harvested and transferred to 15 ml conical centrifuge tubes. After centrifugation for 10 min at 200×g, supernatants are harvested and transferred to 1.5 ml Eppendorf tubes. It may be noted that the cell pellet may be utilized for a biochemical evaluation of pre-IL-1β and/or mature IL-1β content in cytosol extracts by Western blotting or ELISA with pre-IL-1β specific antisera.
PBMC are isolated and prepared as described above. Media (1.0 ml) is first added to wells followed by 0.5 ml of the PBMC suspension. After a one hour incubation, plates are gently shaken and nonadherent cells aspirated from each well. Wells are then gently washed three times with 1.0 ml of media and final resuspended in 1.0 ml media. The enrichment for adherent cells generally yields 2.5-3.0×10^5 cells per well. The addition of test compounds, LPS, cell incubation conditions and processing of supernatants proceeds as described above.
Quantikine kits (R&D Systems) may be used for the measurement of mature IL-1β. Assays are performed according to the manufacturer's directions. Mature IL-1β levels of about 1-3 ng/ml in both PBMC and adherent mononuclear cell positive controls are observed. […]

[4] = substrate Suc-YVAD-pNA 80 μM, 37° C., pH 7.5

IC50 [1] | Ki [2] | Ki [2, 4] | SMILES | IC50 [3]
< 2500 nM | 10 to 1000 nM | 10 to 1000 nM | CC(C)[C@H](NC(=O)c1ccccc1C(=O)c1ccccc1)C(=O)N1CCC[C@H]1C(=O)N[C@H](C=O)CC(=O)O [Example 5u] | 1000 to 2000 nM
< 2500 nM | 10 to 1000 nM | 10 to 1000 nM | CC(C)[C@H](NC(=O)c1cnc2ccccc2n1)C(=O)N1CCC[C@H]1C(=O)N[C@H](C=O)CC(=O)O [Example 5w] | 500 to 1000 nM
< 2500 nM | < 10 nM | < 10 nM | CC(C)[C@H](NC(=O)c1ccccc1C(=O)N[C@@H](C)c1ccccc1)C(=O)N1CCC[C@H]1C(=O)N[C@H](C=O)CC(=O)O [Example 5x] | 500 to 1000 nM
2500 to 7500 nM | < 10 nM | < 10 nM | CCCCCCOc1ccc(C(=O)N[C@H](C(=O)N2CCC[C@H]2C(=O)N[C@H](C=O)CC(=O)O)C(C)C)cc1 [Example 5y] | 500 to 1000 nM
> 7500 nM | < 10 nM | < 10 nM | CCCCCCc1ccc(C(=O)N[C@H](C(=O)N2CCC[C@H]2C(=O)N[C@H](C=O)CC(=O)O)C(C)C)cc1 [Example 5z] | 500 to 1000 nM
2500 to 7500 nM |  | < 10 nM | C[C@H](NC(=O)c1cccc2ccccc12)C(=O)N1CCC[C@H]1C(=O)N[C@H](C=O)CC(=O)O [Example 7a] | > 2000 nM
< 2500 nM |  | 10 to 1000 nM | C[C@H](NC(=O)c1ccccc1)C(=O)N1CCC[C@H]1C(=O)N[C@H](C=O)CC(=O)O [Example 7b] (Bz-Ala-Pro-Asp-aldehyde) | 500 to 1000 nM
> 7500 nM |  | 10 to 1000 nM | CC(=O)Nc1ccc(C(=O)N[C@@H](C)C(=O)N2CCC[C@H]2C(=O)N[C@H](C=O)CC(=O)O)cc1 [Example 7e] (Ac-[4Abz]APD-aldehyde) | > 2000 nM
2500 to 7500 nM |  | < 10 nM | C[C@H](NC(=O)c1ccc(N(C)C)c2ccccc12)C(=O)N1CCC[C@H]1C(=O)N[C@H](C=O)CC(=O)O [Example 7g] | < 500 nM
< 2500 nM |  | 10 to 1000 nM | C[C@H](NC(=O)c1ccc(Cl)c(N)c1)C(=O)N1CCC[C@H]1C(=O)N[C@H](C=O)CC(=O)O [Example 7h] | 500 to 1000 nM
< 2500 nM |  | 10 to 1000 nM | COc1cc(C(=O)N[C@@H](C)C(=O)N2CCC[C@H]2C(=O)N[C@H](C=O)CC(=O)O)cc(OC)c1OC [Example 7k] | 500 to 1000 nM
< 2500 nM |  | 10 to 1000 nM | COc1cc(C(=O)N[C@@H](C)C(=O)N2CCC[C@H]2C(=O)N[C@H](C=O)CC(=O)O)ccc1N [Example 7l] | 500 to 1000 nM
2500 to 7500 nM |  | 10 to 1000 nM | COc1ccc(C(=O)N[C@@H](C)C(=O)N2CCC[C@H]2C(=O)N[C@H](C=O)CC(=O)O)cc1F [Example 7m] | 500 to 1000 nM
< 2500 nM |  | 10 to 1000 nM | C[C@H](NC(=O)c1cccc(N(C)C)c1)C(=O)N1CCC[C@H]1C(=O)N[C@H](C=O)CC(=O)O [Example 7n] | 500 to 1000 nM
< 2500 nM |  | < 10 nM | COc1cc(C(=O)N[C@@H](C)C(=O)N2CCC[C@H]2C(=O)N[C@H](C=O)CC(=O)O)cc(Cl)c1O [Example 7o] | < 500 nM
2500 to 7500 nM |  | < 10 nM | COc1ccc(C(=O)N[C@@H](C)C(=O)N2CCC[C@H]2C(=O)N[C@H](C=O)CC(=O)O)cc1C [Example 7p] | > 2000 nM
< 2500 nM |  | 10 to 1000 nM | C[C@H](NC(=O)c1ccc2c(c1)OCO2)C(=O)N1CCC[C@H]1C(=O)N[C@H](C=O)CC(=O)O [Example 7q] | > 2000 nM
2500 to 7500 nM |  | 10 to 1000 nM | C[C@H](NC(=O)c1ccc(N(C)C)cc1)C(=O)N1CCC[C@H]1C(=O)N[C@H](C=O)CC(=O)O [Example 7s] | 500 to 1000 nM
2500 to 7500 nM |  | 10 to 1000 nM | Cc1cc(C(=O)N[C@@H](C)C(=O)N2CCC[C@H]2C(=O)N[C@H](C=O)CC(=O)O)ccc1N [Example 7t] | > 2000 nM
